Test system: Adenovirus-specific T cells producing IFNγ
Test: IFNγ-ELISpot, vector-specific T cell response (Ad-specific peptide FAL) in HBV-persistent mice
Assay type: in vivo, C57BL/6J mice
Settings: splenocytes, day 76 post AAV2/8-HBV; sildenafil 20 mg/kg/day D31-59 or D48-76; AdTG18201 2×10^9 vp sc D36, 43, 50
Procedure: The capacity of splenocytes to produce IFNγ after different in vitro stimulations was measured by an IFNγ-ELISpot assay at day 76 post AAV2/8-HBV injection. Vector-specific T cell responses were assessed using the Ad-specific peptide FAL. Results are shown as the number of spots per 10^6 splenocytes. Each dot represents an individual mouse and thick line represents the mean value for each group (+/−SEM). The horizontal gray line represents the technical cutoff value (50 spots/10^6 cells) above which values are considered as positive T cell responses and which was defined as described in the Material and Methods. For groups with a positive T cell response, incidence of mice per group is indicated on the graph.
The HBV persistent mice used in the study were described by Dion et al. (2013, J Virol, 87(10):5554-63). […] This allows the analysis of HBV-specific viral parameters (HBsAg, HBeAg, HBcAg and viremia) as well as immunological read-outs (ICS, ELISpot or humoral immune responses). […]
IFNg-producing T cells were quantified by cytokine-specific ELISpot (enzyme linked immunospot) assay as previously described (Himoudi et al., 2002, J. Virol. 76: 12735). The number of spots (corresponding to the IFNg-producing T cells) in negative control wells were subtracted from the number of spots detected in experimental wells containing HBV peptides. […]

In the case of `CCCc1nn(C)c2c(=O)nc(-c3cc(S(=O)(=O)N4CCN(C)CC4)ccc3OCC)[nH]c12` [sildenafil, 1-[[3-(4,7-dihydro-1-methyl-7-oxo-3-propyl-1H-pyrazolo[4,3-d]pyrimidin-5-yl)-4-ethoxyphenyl]sulfonyl]-4-methylpiperazine], the “IFNg-response to the Ad-specific peptide FAL” value is reported as “negative”.

Source: US20190328869A1, “IMMUNOTHERAPEUTIC PRODUCT AND MDSC MODULATOR COMBINATION THERAPY” (Transgene SA, priority 2016, published 2019)
